Compound: COC1=C(C=C(C=C1)C2=CC3=NC=CN3C(=N2)NC4=C(C=CC=N4)C(=O)N)OC [BAY61-3606] + Cc1cc(Nc2cc(N3CCN(C)CC3)nc(Sc3ccc(NC(=O)C4CC4)cc3)n2)n[nH]1 [Tozasertib] (partner 0.1 µM)
Assay: relative viability (nuclei count vs DMSO), 5 days (fraction); higher = more cells survive
Conditions: first compound 2 µM
How it was run: (§1)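 Lung cancer cell lines were seeded in 1536-well plates and dosed by pin tool the next day, with either a single drug or a fixed anchor-drug dose combined with five library-drug doses (not always all listed) spaced in √10 steps. Five days later, one step fixed the cells and stained their nuclei (final 0.05% Triton X-100, 1% formaldehyde, 1 ug/ml Hoechst), and nuclei were counted on 4× images. Relative viability is the nuclei count in treated wells divided by the count in vehicle wells, and each value is the median of duplicate plates.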

Cell Line	relative viability
NCI-H650	0.226
NCI-H3122	0.305
NCI-H441	0.274

Compound: COC1=C(C=C(C=C1)C2=CC3=NC=CN3C(=N2)NC4=C(C=CC=N4)C(=O)N)OC [BAY61-3606] + NC(=O)Nc1cc(-c2cccc(F)c2)sc1C(=O)N[C@H]1CCCNC1 [AZD7762] (partner 0.2 µM)
Assay: as above
Conditions: first compound 0.02 µM
How it was run: as §1

Cell Line	relative viability
RERF-LC-KJ	1.07
NCI-H1651	0.517
NCI-H1734	0.554
NCI-H596	1.04
LCLC-97TM1	0.204
EMC-BAC-2	1.12
NCI-H2087	1.31
HCC-44	1.01
NCI-H727	0.747
LK-2	0.369
NCI-H2126	1.06
NCI-H1793	0.483
H3255	0.941
LC-2-ad	0.876
LU99A	0.41
ChaGo-K-1	0.943

Cell Line	relative viability
NCI-H358	0.489
NCI-H322M	0.528
HCC-78	0.645
LXF-289	1.13
BEN	0.78
HARA	0.286
SW 900	0.591
HCC-827	0.219
LOU-NH91	0.792
A-427	0.831
NCI-H647	0.433
PC-3 [JPC-3]	0.675
NCI-H1755	0.439
NCI-H650	1.18
NCI-H3122	0.989
NCI-H441	1.21

Same assay, conditions: first compound 0.06325 µM

Cell Line	relative viability
RERF-LC-KJ	0.846
NCI-H1651	0.454
NCI-H1734	0.508
NCI-H596	0.929
LCLC-97TM1	0.326
EMC-BAC-2	0.888
NCI-H2087	1.43
HCC-44	1.1
NCI-H727	0.509
LK-2	0.309
NCI-H2126	1.09
NCI-H1793	0.277
H3255	0.775
LC-2-ad	0.887
LU99A	0.306
ChaGo-K-1	0.904

Cell Line	relative viability
NCI-H358	0.502
NCI-H322M	0.525
HCC-78	0.51
LXF-289	1.1
BEN	0.637
HARA	0.291
HCC-827	0.176
LOU-NH91	0.686
A-427	0.689
NCI-H647	0.393
PC-3 [JPC-3]	0.794
NCI-H1755	0.483
NCI-H650	0.887
NCI-H3122	0.968
NCI-H441	1.29

Same assay, conditions: first compound 0.2 µM

Cell Line	relative viability
RERF-LC-KJ	1.03
NCI-H1651	0.463
NCI-H1734	0.557
NCI-H596	1.13
LCLC-97TM1	0.228
EMC-BAC-2	1.1
NCI-H2087	1.35
HCC-44	0.962
NCI-H727	0.577
LK-2	0.472
NCI-H2126	0.999
NCI-H1793	0.448
H3255	1.03
LC-2-ad	0.778
LU99A	0.358
ChaGo-K-1	0.9

Cell Line	relative viability
NCI-H358	0.469
NCI-H322M	0.579
HCC-78	0.652
LXF-289	1.04
BEN	0.672
HARA	0.452
HCC-827	0.211
LOU-NH91	0.748
A-427	0.659
NCI-H647	0.383
PC-3 [JPC-3]	0.809
NCI-H1755	0.462
NCI-H650	0.889
NCI-H3122	0.962
NCI-H441	1.04

Same assay, conditions: first compound 0.6325 µM

Cell Line	relative viability
RERF-LC-KJ	0.872
NCI-H1651	0.52
NCI-H1734	0.502
NCI-H596	1.7
LCLC-97TM1	0.393
EMC-BAC-2	1.32
NCI-H2087	1.23
HCC-44	1.01
NCI-H727	0.75
LK-2	0.534
NCI-H2126	1.02
NCI-H1793	0.636
H3255	0.942
LC-2-ad	0.857
LU99A	0.399
ChaGo-K-1	0.847

Cell Line	relative viability
NCI-H358	0.468
NCI-H322M	0.522
HCC-78	0.487
LXF-289	1.24
BEN	0.694
HARA	0.303
SW 900	0.632
HCC-827	0.215
LOU-NH91	0.784
A-427	0.752
NCI-H647	0.444
PC-3 [JPC-3]	0.801
NCI-H1755	0.422
NCI-H650	0.998
NCI-H3122	1.02
NCI-H441	1.3

Same assay, conditions: first compound 2 µM

Cell Line	relative viability
RERF-LC-KJ	0.869
NCI-H1651	0.498
NCI-H1734	0.374
NCI-H596	0.846
LCLC-97TM1	0.345
EMC-BAC-2	1.12
NCI-H2087	0.959
HCC-44	1.1
NCI-H727	0.734
LK-2	0.361
NCI-H2126	0.954
NCI-H1793	0.504
H3255	0.902
LC-2-ad	0.849
LU99A	0.334
ChaGo-K-1	0.841

Cell Line	relative viability
NCI-H358	0.261
NCI-H322M	0.571
HCC-78	0.674
LXF-289	1.24
BEN	0.808
HARA	0.3
SW 900	0.758
HCC-827	0.207
LOU-NH91	0.656
A-427	0.682
NCI-H647	0.324
PC-3 [JPC-3]	0.752
NCI-H1755	0.59
NCI-H650	0.999
NCI-H3122	0.945
NCI-H441	0.974

Compound: COc1cccc2c1C(=O)c1c(O)c3c(c(O)c1C2=O)C[C@@](O)(C(=O)CO)C[C@@H]3O[C@H]1C[C@H](N)[C@H](O)[C@H](C)O1 [Doxorubicin] + Cc1nc(NC(=O)N2CCC[C@H]2C(N)=O)sc1-c1ccnc(C(C)(C)C(F)(F)F)c1 [Alpelisib] (partner 2 µM)
Assay: as above
Conditions: first compound 0.001 µM
How it was run: as §1

Cell Line	relative viability
RERF-LC-KJ	0.815
NCI-H1651	0.902
NCI-H1734	0.589
NCI-H596	0.446
LCLC-97TM1	0.228
EMC-BAC-2	0.799
NCI-H2087	1.2
HCC-44	0.823
NCI-H727	0.45
LK-2	0.521
NCI-H2126	0.743
H3255	0.698
LC-2-ad	0.892
LU99A	0.489
NCI-H358	0.796
NCI-H322M	0.916
HCC-78	0.374
LXF-289	1.02
BEN	1.09
HARA	0.816
HCC-827	1.04
A-427	1.11
NCI-H647	1.15
PC-3 [JPC-3]	1.02
NCI-H1755	0.918
NCI-H650	1.31
NCI-H3122	0.835

Same assay, conditions: first compound 0.003162 µM

Cell Line	relative viability
RERF-LC-KJ	0.885
NCI-H1651	0.996
NCI-H1734	0.682
NCI-H596	0.537
LCLC-97TM1	0.219
EMC-BAC-2	0.88
NCI-H2087	1.15
HCC-44	0.801
NCI-H727	0.617
LK-2	0.642
NCI-H2126	0.775
NCI-H1793	0.557
H3255	0.656
LC-2-ad	0.87
LU99A	0.648
NCI-H358	0.916
NCI-H322M	0.77
HCC-78	0.269
LXF-289	1.1
BEN	1.04
HARA	0.845
HCC-827	1.15
LOU-NH91	0.707
A-427	1.09
NCI-H647	1.08
PC-3 [JPC-3]	1.02
NCI-H1755	0.992
NCI-H650	1.13
NCI-H3122	0.776
NCI-H441	0.713

Same assay, conditions: first compound 0.01 µM

Cell Line	relative viability
RERF-LC-KJ	0.893
NCI-H1651	0.875
NCI-H1734	0.662
NCI-H596	0.524
LCLC-97TM1	0.269
EMC-BAC-2	0.679
NCI-H2087	1.19
HCC-44	0.751
NCI-H727	0.55
LK-2	0.947
NCI-H2126	0.755
NCI-H1793	0.675
H3255	0.562
LC-2-ad	0.924
LU99A	0.549
NCI-H358	0.569
NCI-H322M	0.924
HCC-78	0.548
LXF-289	1.07
BEN	0.913
HARA	0.76
HCC-827	0.968
LOU-NH91	0.701
A-427	1.09
NCI-H647	0.98
PC-3 [JPC-3]	1.05
NCI-H1755	0.719
NCI-H650	1.06
NCI-H3122	0.815
NCI-H441	0.684

Same assay, conditions: first compound 0.03162 µM

Cell Line	relative viability
RERF-LC-KJ	0.675
NCI-H1651	0.424
NCI-H1734	0.604
NCI-H596	0.446
LCLC-97TM1	0.24
EMC-BAC-2	0.734
NCI-H2087	0.984
HCC-44	0.78
NCI-H727	0.469
LK-2	0.868
NCI-H2126	0.711
NCI-H1793	0.389
H3255	0.58
LC-2-ad	0.859
LU99A	0.505
NCI-H358	0.19
NCI-H322M	0.769
HCC-78	0.298
LXF-289	1.08
BEN	0.656
HARA	0.782
HCC-827	1.02
LOU-NH91	0.589
A-427	1.09
NCI-H647	0.288
PC-3 [JPC-3]	1
NCI-H1755	0.947
NCI-H650	0.938
NCI-H3122	0.782
NCI-H441	0.234

Same assay, conditions: first compound 0.1 µM

Cell Line	relative viability
RERF-LC-KJ	0.719
NCI-H1651	0.201
NCI-H1734	0.661
NCI-H596	0.551
LCLC-97TM1	0.285
EMC-BAC-2	0.717
NCI-H2087	0.862
HCC-44	0.93
NCI-H727	0.705
LK-2	0.85
NCI-H2126	0.796
NCI-H1793	0.588
H3255	0.404
LC-2-ad	0.724
LU99A	0.51
NCI-H358	0.154
NCI-H322M	0.777
HCC-78	0.312
LXF-289	1.06
BEN	0.886
HARA	0.812
HCC-827	1.05
LOU-NH91	0.398
A-427	1.15
NCI-H647	0.163
PC-3 [JPC-3]	1.03
NCI-H1755	0.94
NCI-H650	0.822
NCI-H3122	0.768
NCI-H441	0.393
